The experiment addresses T1, Human CXCR4 transfected HEK293 cells (Homo sapiens, UniProt P61073).
T1 construct: expressed in transfected cells; host or cells: HEK293
The experiment is described as follows: CXCR4 functional calcium assay (calcium flux FLIPR, antagonism of SDF1 response). The class given is cell-based. The conditions noted are these: CXCR4 functional activity, antagonism of SDF1 (EC50 concentration), read-out: CXCR4 fKi. The essentials:
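Dose-dependent antagonism of the SDF1 response was read by FLIPR as Fluo-4 calcium signal (2 μM dye) in CXCR4-expressing human HEK293 cells, in HBSS with probenecid, BSA and HEPES at pH 7.4 and 37° C. Test compound was given before an EC50-level SDF1 challenge. Curves were then fitted.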
For orientation: A change in cytosolic calcium serves as a functional read-out for many receptors and channels.

T1 sequence (P61073 whole entry): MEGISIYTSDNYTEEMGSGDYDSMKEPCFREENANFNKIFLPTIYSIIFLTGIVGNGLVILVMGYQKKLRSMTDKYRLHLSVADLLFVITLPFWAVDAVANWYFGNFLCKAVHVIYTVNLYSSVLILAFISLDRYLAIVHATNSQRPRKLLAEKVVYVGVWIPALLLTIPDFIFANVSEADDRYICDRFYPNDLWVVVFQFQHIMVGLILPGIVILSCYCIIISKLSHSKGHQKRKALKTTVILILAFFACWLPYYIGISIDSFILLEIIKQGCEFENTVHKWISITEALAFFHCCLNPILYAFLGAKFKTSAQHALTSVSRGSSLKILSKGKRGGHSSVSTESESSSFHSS

`O=C(Nc1ccncc1)c1cccc(N2CC[C@@H](NCC3CCN(C4CCCC4)CC3)C2)n1` [Example 228, 6-[(3R)-3-{[(1-Cyclopentylpiperidin-4-yl)methyl]amino}pyrrolidin-1-yl]-N-(pyridin-4-yl)pyridine-2-carboxamide]: the Ki is less than 20 nM. To `[2H]C1([2H])CCN(c2cccc(C(=O)Nc3ccncc3)n2)CC(C)N1C1CCN(Cc2ccccc2Cl)CC1` (stereo not drawn) [Example 206, 6-(4-{1-[(2-Chlorophenyl)methyl]piperidin-4-yl}-5,5-dihydrogenio-3-methyl-1,4-diazepan-1-yl)-N-(pyridin-4-yl)pyridine-2-carboxamide] belongs less than 20 nM. For the molecule `O=C(NCC1CC1)c1csc(N2CCCN(C3CCN(Cc4ccccc4Cl)CC3)CC2)n1` [Example 265, 2-(4-{1-[(2-Chlorophenyl)methyl]piperidin-4-yl}-1,4-diazepan-1-yl)-N-(cyclopropylmethyl)-1,3-thiazole-4-carboxamide], the Ki is 500 to 1000 nM. To `O=C(Nc1ccncc1)c1cccc(N2CC[C@@H](NC[C@@H]3CCN(C4CCCC4)C3)C2)n1` [Example 226, 6-[(3R)-3-({[(3S)-1-Cyclopentylpyrrolidin-3-yl]methyl}amino)pyrrolidin-1-yl]-N-(pyridin-4-yl)pyridine-2-carboxamide] belongs less than 20 nM; to `CC(C)N1CCCC(N2CCN(c3cccc(C(=O)Nc4ccncc4)n3)CC2)CC1` (stereo not drawn) [Example 242, 6-{4-[1-(Propan-2-yl)azepan-4-yl]piperazin-1-yl}-N-(pyridin-4-yl)pyridine-2-carboxamide], 100 to 500 nM; to `[2H]C1([2H])CCN(c2cccc(C(=O)Nc3ccncc3)n2)CCN1C1CCN([C@@H](C)CC)CC1` [Example 189, 6-(4-{1-[(2S)-Butan-2-yl]piperidin-4-yl}-5,5-dihydrogenio-1,4-diazepan-1-yl)-N-(pyridin-4-yl)pyridine-2-carboxamide], less than 20 nM. To `CC(C)N1CCC(N2CCN(c3cccc(C(=O)NCC4CC4)n3)CC(O)C2)CC1` (stereo not drawn) [Example 183, N-(Cyclopropylmethyl)-6-{6-hydroxy-4-[1-(propan-2-yl)piperidin-4-yl]-1,4-diazepan-1-yl}pyridine-2-carboxamide] belongs 100 to 500 nM; to `CC(C)N1CCC(N2CCCN(c3cccc(-c4cc5ncccc5[nH]4)n3)CC2)CC1` [Example 96, 1-[1-(Propan-2-yl)piperidin-4-yl]-4-(6-{1H-pyrrolo[3,2-b]pyridine-2-yl}pyridine-2-yl)-1,4-diazepane], 20 to 100 nM; to `CC[C@@H](C)N1CCC(N2CCCN(c3cccc(C(=O)Nc4ccncc4)n3)CC2)CC1` [Example 78, 6-(4-{1-[(2R)-Butan-2-yl]piperidin-4-yl}-1,4-diazepan-1-yl)-N-(pyridine-4-yl)pyridine-2-carboxamide], less than 20 nM. As for `COc1ccc2[nH]c(-c3cccc(N4CCCN(C5CCN(C(C)C)CC5)CC4)n3)cc2c1` [Example 105, 5-Methoxy-2-(6-{4-[1-(propan-2-yl)piperidin-4-yl]-1,4-diazepan-1-yl}pyridine-2-yl)-1H-indole], the Ki lay within 500 to 1000 nM. To `[2H]C1([2H])CCN(C2CCN(C(C)C)CC2)CCN1c1cccc(C(=O)NCC2CC2)n1` [Example 181, N-(Cyclopropylmethyl)-6-{7,7-dihydrogenio-4-[1-(propan-2-yl)piperidin-4-yl]-1,4-diazepan-1-yl}pyridine-2-carboxamide] belongs 20 to 100 nM; to `O=C(NCC1CC1)c1ccnc(N2CCCN(C3CCN(Cc4ccccc4Cl)CC3)CC2)c1` [Example 269, 2-(4-{1-[(2-chlorophenyl)methyl]piperidin-4-yl}-1,4-diazepan-1-yl)-N-(cyclopropylmethyl)pyridine-4-carboxamide], 100 to 500 nM.

`[2H]C1([2H])CCN(c2cccc(C(=O)Nc3ccncc3)n2)CC(C)N1C1CCN(C(C)C)CC1` (stereo not drawn) [Example 195, 6-{5,5-Dihydrogenio-3-methyl-4-[1-(propan-2-yl)piperidin-4-yl]-1,4-diazepan-1-yl}-N-(pyridin-4-yl)pyridine-2-carboxamide]: the Ki was less than 20 nM. Under `CC(C)N1CCC(N2CCCN(c3cccc(C(=O)NCC4CC4)n3)CC2C)CC1` (stereo not drawn) [Example 194, N-(Cyclopropylmethyl)-6-{3-methyl-4-[1-(propan-2-yl)piperidin-4-yl]-1,4-diazepan-1-yl}pyridine-2-carboxamide] stands 20 to 100 nM; under `CC(C)N1CCC(N2CCCN(c3cccc(C(=O)NCc4ccco4)n3)CC2)CC1` [Example 40, N-(Furan-2-ylmethyl)-6-{4-[1-(propan-2-yl)piperidin-4-yl]-1,4-diazepan-1-yl}pyridine-2-carboxamide], less than 20 nM; under `CC(C)N1CCC(N2CCCN(c3cccc(-c4cc5ccncc5[nH]4)n3)CC2)CC1` [Example 98, 1-[1-(Propan-2-yl)piperidin-4-yl]-4-(6-{1H-pyrrolo[2,3-c]pyridine-2-yl}pyridine-2-yl)-1,4-diazepane], 20 to 100 nM. For `CCNC(=O)c1cccc(N2CCCN(C3CCN(Cc4ccccc4Cl)CC3)CC2)n1` [Example 137, 6-(4-{1-[(2-Chlorophenyl)methyl]piperidin-4-yl}-1,4-diazepan-1-yl)-N-ethylpyridine-2-carboxamide], the Ki fell in the range of 20 to 100 nM. For the molecule `CC(C)N1CCC(N2CCCN(c3cccc(C(=O)NCCC#N)n3)CC2)CC1` [Example 13, N-(2-Cyanoethyl)-6-{4-[1-(propan-2-yl)piperidin-4-yl]-1,4-diazepan-1-yl}pyridine-2-carboxamide], the Ki was 100 to 500 nM.

As for `O=C(NCC1CC1)c1cccc(N2CCC(NCc3ccccc3Cl)CC2)n1` [Example 248, 6-(4-{[(2-Chlorophenyl)methyl]amino}piperidin-1-yl)-N-(cyclopropylmethyl)pyridine-2-carboxamide], the Ki lay in the range of 500 to 1000 nM.

In the case of `Cc1cc(C(=O)NCC2CC2)nc(N2CCCN(C3CCN(Cc4ccccc4Cl)CC3)CC2)c1` [Example 268, 6-(4-{1-[(2-Chlorophenyl)methyl]piperidin-4-yl}-1,4-diazepan-1-yl)-N-(cyclopropylmethyl)-4-methylpyridine-2-carboxamide], the Ki lay in the range of 100 to 500 nM. To `CC(C)N1CCC(N2CCCN(c3cccc(C(=O)NCc4ncco4)n3)CC2)CC1` [Example 38, N-(1,3-Oxazol-2-ylmethyl)-6-{4-[1-(propan-2-yl)piperidin-4-yl]-1,4-diazepan-1-yl}pyridine-2-carboxamide] belongs 20 to 100 nM. Under `CC(C)N1CCC(N2CCCN(c3cccc(C(=O)NCc4cnco4)n3)CC2)CC1` [Example 44, N-(1,3-Oxazol-5-ylmethyl)-6-{4-[1-(propan-2-yl)piperidin-4-yl]-1,4-diazepan-1-yl}pyridine-2-carboxamide] stands 20 to 100 nM; under `CC(C)N1CCC(N2CCCN(c3cccc(C(=O)Cc4ccccc4)n3)CC2)CC1` [Example 220, 2-Phenyl-1-(6-{4-[1-(propan-2-yl)piperidin-4-yl]-1,4-diazepan-1-yl}pyridin-2-yl)ethan-1-one], 20 to 100 nM; under `CC(C)CCNC(=O)c1cccc(N2CCCN(C3CCN(Cc4ccccc4Cl)CC3)CC2)n1` [Example 49, 6-(4-{1-[(2-Chlorophenyl)methyl]piperidin-4-yl}-1,4-diazepan-1-yl)-N-(3-methylbutyl)pyridine-2-carboxamide], 100 to 500 nM.

Values taken from patent US10995091B2 (Proximagen, LLC, priority 2010, dated 2021).
